# Measured values taken from patent US6878697B2, “Phenylamino-pyrimidines and uses thereof” (Ariad Pharmaceuticals, Inc., priority 2001, dated 2005).
# Assay: Hydroxyapatite assay (hydroxyapatite adsorption chromatography)
# Type: physicochemical
# Details: corrected retention K=(retention time-void time)/void on TSK-Gel HA 1000 HPLC column; linear gradient 10 mM to 500 mM sodium phosphate, 0.15 N NaCl, pH 6.8
# Description: Hydroxyapatite is the principal mineral component of bone. Hydroxyapatite adsorption chromatography is used as an assay to evaluate the bone-targeting potential of both individual bone-targeting moieties (“monomers”) and of pharmaceuticals incorporating bone-targeting groups.
# Method: The rentention time of a test compound is measured using a linear gradient from 10 mM sodium phosphate, 0.15 N NaCl, pH=6.8 to 500 mM sodium phosphate, 0.15 N NaCl, […] on a TSK-Gel HA 1000 high pressure liquid chromatography column (7.5 mm×75 mm). The rentention time of the compound is expressed in terms of K=(retention time-void time)/void. This K value is corrected using two reference compounds to correct from inter-column and inter-system variation to obtain a K′ value.
# Reference Compounds: K′ values were determined for known bone targeted compounds, the bisphosphonate, alendronate and tetracycline.
compound,measurement,value
"NCCCC(O)(P(=O)(O)O)P(=O)(O)O [Alendronate, alendronate]",K′ value,3.7
